In ChEMBL document CHEMBL1201862, “PubChem BioAssay data set” (2004):
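Step 1: Grow cells in 96-well plates. Step 2: Expose to compound for 48 hours at 5 concentrations. Step 3: Interpolate endpoints linearly; if unreached, use highest concentration. GI50 = concentration required for 50% inhibition of growth.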 The source made the active and inactive calls. No stated cut-off is given here; in the data, active = GI50 up to about 1.1 µM and inactive = higher.

Assays:
Experiment in all cases: NCI anticancer screen, dose series, 48 h
A498 = tested on: A498
CAKI-1 = tested on: CAKI-1
HCT-15 = tested on: HCT-15
HOP-92 = tested on: HOP-92
IGROV-1 = tested on: IGROV-1
KM12 = tested on: KM12
LOX IMVI = tested on: LOX IMVI
M14 = tested on: M14
MDA-MB-435 = tested on: MDA-MB-435
MOLT-4 = tested on: MOLT-4
NCI-H226 = tested on: NCI-H226
NCI/ADR-RES = tested on: NCI/ADR-RES
OVCAR-3 = tested on: OVCAR-3
OVCAR-8 = tested on: OVCAR-8
SK-OV-3 = tested on: SK-OV-3
SNB-75 = tested on: SNB-75
SW-620 = tested on: SW-620
TK-10 = tested on: TK-10
U-251 = tested on: U-251
UACC-257 = tested on: UACC-257

O=C1OC(=O)C2C1C(c1ccccc1[N+](=O)[O-])C=C(c1ccco1)N2c1ccncc1 (stereo not given)
GI50 (A498): 12.2 µM (inactive)
GI50 (CAKI-1): 16 µM (inactive)
GI50 (HCT-15): 2.92 µM
GI50 (HOP-92): 3.68 µM (inactive)
GI50 (IGROV-1): 2.09 µM (inactive)
GI50 (KM12): 1.98 µM (inactive)
GI50 (LOX IMVI): 1.87 µM (inactive)
GI50 (M14): 6.84 µM (inactive)
GI50 (MDA-MB-435): 8.39 µM (inactive)
GI50 (MOLT-4): 1.88 µM (inactive)
GI50 (NCI-H226): 12.8 µM (inactive)
GI50 (NCI/ADR-RES): 18.8 µM (inactive)
GI50 (OVCAR-3): 11.9 µM (inactive)
GI50 (OVCAR-8): 10.7 µM (inactive)
GI50 (SK-OV-3): 17.6 µM (inactive)
GI50 (SNB-75): 14 µM (inactive)
GI50 (SW-620): 6.15 µM (inactive)
GI50 (TK-10): 3.82 µM (inactive)
GI50 (U-251): 3.94 µM (inactive)
GI50 (UACC-257): 2.08 µM (inactive)

C/C(=N\NC(N)=S)C(CN1CCCCC1)C(C1=C(O)c2ccccc2OC1)c1ccccc1 (stereo not given)
GI50 (A498): > 100 µM (inactive)
GI50 (CAKI-1): > 100 µM (inactive)
GI50 (HCT-15): > 100 µM
GI50 (HOP-92): 22.5 µM (inactive)
GI50 (IGROV-1): > 100 µM (inactive)
GI50 (KM12): > 100 µM (inactive)
GI50 (LOX IMVI): > 100 µM (inactive)
GI50 (M14): > 100 µM (inactive)
GI50 (MDA-MB-435): > 100 µM (inactive)
GI50 (MOLT-4): 64 µM (inactive)
GI50 (NCI-H226): > 100 µM (inactive)
GI50 (NCI/ADR-RES): > 100 µM (inactive)
GI50 (OVCAR-3): 82.4 µM (inactive)
GI50 (OVCAR-8): > 100 µM (inactive)
GI50 (SK-OV-3): > 100 µM (inactive)
GI50 (SNB-75): > 100 µM (inactive)
GI50 (SW-620): > 100 µM (inactive)
GI50 (TK-10): > 100 µM (inactive)
GI50 (U-251): > 100 µM (inactive)
GI50 (UACC-257): > 100 µM (inactive)

CCOC(=O)C12CC(C)=C(C)CC1CCCc1ccccc12 (stereo not given)
GI50 (A498): 23 µM (inactive)
GI50 (CAKI-1): 31.1 µM (inactive)
GI50 (HCT-15): 22.3 µM
GI50 (HOP-92): 13.5 µM (inactive)
GI50 (IGROV-1): 26.4 µM (inactive)
GI50 (KM12): 29.6 µM (inactive)
GI50 (LOX IMVI): 17.1 µM (inactive)
GI50 (M14): 30.3 µM (inactive)
GI50 (MDA-MB-435): 27.2 µM (inactive)
GI50 (MOLT-4): 18 µM (inactive)
GI50 (NCI-H226): 24.5 µM (inactive)
GI50 (NCI/ADR-RES): 39.4 µM (inactive)
GI50 (OVCAR-3): 17.5 µM (inactive)
GI50 (OVCAR-8): 28.9 µM (inactive)
GI50 (SK-OV-3): 32 µM (inactive)
GI50 (SNB-75): 28.8 µM (inactive)
GI50 (SW-620): 20.8 µM (inactive)
GI50 (TK-10): 27 µM (inactive)
GI50 (U-251): 18.4 µM (inactive)
GI50 (UACC-257): 17.6 µM (inactive)

COc1ccc(N2C(=O)/C(=C/c3ccc(N(CCC#N)CCC#N)cc3)N=C2c2ccccc2)cc1
GI50 (A498): > 100 µM (inactive)
GI50 (CAKI-1): 6.19 µM (inactive)
GI50 (HCT-15): > 100 µM
GI50 (HOP-92): > 100 µM (inactive)
GI50 (IGROV-1): > 100 µM (inactive)
GI50 (KM12): > 100 µM (inactive)
GI50 (LOX IMVI): > 100 µM (inactive)
GI50 (M14): > 100 µM (inactive)
GI50 (MDA-MB-435): > 100 µM (inactive)
GI50 (MOLT-4): > 100 µM (inactive)
GI50 (NCI-H226): > 100 µM (inactive)
GI50 (NCI/ADR-RES): > 100 µM (inactive)
GI50 (OVCAR-3): > 100 µM (inactive)
GI50 (OVCAR-8): > 100 µM (inactive)
GI50 (SK-OV-3): > 100 µM (inactive)
GI50 (SNB-75): > 100 µM (inactive)
GI50 (SW-620): > 100 µM (inactive)
GI50 (TK-10): > 100 µM (inactive)
GI50 (U-251): > 100 µM (inactive)
GI50 (UACC-257): > 100 µM (inactive)
